Columns and labels:
[1] = tested on: open-chest, barbital-anesthetized dogs; assay: Protocol I (pretreatment): 60 minutes of coronary artery occlusion and 3 hours of reperfusion in dogs
Description: The studies were performed in open-chest, barbital-anesthetized dogs instrumented to measure heart rate, blood pressure, left ventricular pressure, and regional myocardial blood flow (radioactive microspheres). A mechanical occluder was placed around a proximal portion of the left anterior descending coronary artery to produce ischemia and reperfusion. At the end of the experiments, infarct size was determined-by histochemical staining (patent blue dye and triphenyltetrazolium) and expressed as a percentage of the region at risk or as a percentage of the entire left ventricle.
In the pretreatment protocol (see FIG. 1, protocol I), the dogs were subjected to 60 minutes of coronary artery occlusion and 3 hours or reperfusion after which the hearts were removed and infarct size was assessed. […] All of the antagonists were administered at a dose of 1 mg/kg as an i.v. bolus followed by and infusion of 10 μg/kg/min continued until immediately before reperfusion (70 minutes total).

[2] = biological target: T1, recombinant human A2a adenosine receptors (Homo sapiens, UniProt P29274); assay: Radioligand competitive binding, human A2a receptor ([3H]-ZM241385)
T1 construct: purchased PerkinElmer (Boston, Mass.); host or cells: HEK 293
Description: Binding assays were terminated by filtration.
Membranes (40-70 μg membrane protein), radioligands, and varying concentrations of competing ligands were incubated in triplicate in 0.1 ml buffer HE plus 2 units/mL adenosine deaminase for 2.5 hours at 21° C. The radioligands used for competitive binding assays were: [^3H]-8-cyclopentyl-1,3-dipropyxanthine ([^3H]-DPCPX) (NEN, Boston, Mass.) for A1 and A2b adenosine receptors, [^3H]-4-(2-[7-amino-2-(furyl)(1,2,4)triazole(2,3-a)(1,3,5)triazin-5-ylaminoethyly)phenol ([^3H] ZM241385) for A2a adenosine receptors (Tocris, Bristol, UK), and [^125Iodine]-labeled N6-(4-aminobenzyl)-9-(5-(methylcarbonyl)-β-D-ribofuranosyl) adenine ([^125I]-AB-MECA) or [^3H]-R-N^6-phenylisopropyladenosine (H^3R]-R-PIA) for A3 adenosine receptors (both from NEN, Boston, Mass.). Nonspecific binding was measured in the presence of 10 μM 5′N ethylcarboxamidoadenosine (NECA, from RBI-Sigma, Natick, Mass.) for A1 and A2b receptors, or 10 μM xanthine amino congener (XAC, from RBI-Sigma, Natick, Mass.) for A2a receptors. Binding assays were terminated by filtration over Whatman GF/C glass fiber filters using a BRANDEL cell harvester (Gaithersburg, Md.).

T1 sequence (P29274 whole entry): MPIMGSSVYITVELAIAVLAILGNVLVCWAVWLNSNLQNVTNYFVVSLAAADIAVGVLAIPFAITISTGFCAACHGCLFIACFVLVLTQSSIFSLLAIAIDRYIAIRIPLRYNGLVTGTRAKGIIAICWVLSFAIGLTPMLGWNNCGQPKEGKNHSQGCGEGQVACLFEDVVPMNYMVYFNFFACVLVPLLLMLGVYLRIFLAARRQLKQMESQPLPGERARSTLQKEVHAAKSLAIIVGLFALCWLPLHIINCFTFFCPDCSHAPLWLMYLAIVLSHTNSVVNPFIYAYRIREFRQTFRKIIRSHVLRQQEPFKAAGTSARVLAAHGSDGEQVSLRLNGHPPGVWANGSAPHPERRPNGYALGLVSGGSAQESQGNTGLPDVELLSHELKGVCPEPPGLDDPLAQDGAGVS

CCCn1c(=O)c2[nH]c(C34CCC(CCC(=O)O)(CC3)CC4)nc2n(CCC)c1=O [BG 9928, 3-[4-(2,6-dioxo-1,3-dipropyl-2,3,6,7-tetrahydro-1H-purin-8-yl)-bicyclo[2.2.2]oct-1-yl]-propionic acid]
Relationship between infarct size and transmural collateral blood flow compared to control group [1]: shifted downward | Infarct size (percentage of risk region or of left ventricle) compared with control, in words ([1]; 1 mg/kg i.v. bolus + 10 μg/kg/min from 10 minutes before occlusion, 1 mg/kg): significantly smaller | Infarct size reduction ([1]; 1 mg/kg i.v. bolus + 10 μg/kg/min from 10 minutes before occlusion, vs control): 49% | Ki [2]: 4.06 µM
